Results as given in PubChem BioAssay AID248 (DTP/NCI, 2004).
Where “and” joins values, the source holds several entries; their conditions need not be identical. Equal values may be shown once. Inconclusive results and toxic doses are left out.

Tested on: L1210 leukemia ip in BDF1 mice, survival T/C
Experiment: NCI In Vivo Anticancer Drug Screen. Data for tumor model L1210 Leukemia (intraperitoneal) in B6D2F1 (BDF1) mice
Conditions: endpoint: mean survival time, higher = longer survival
Outline: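 Transplanted-tumor mice were given test agent; controls received vehicle only. Survival readings from the two groups were divided (treated over control).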

[1] = dose: 100.0 mg/kg/injection, schedule: Q01DX001 (ip), vehicle: acetone
[2] = dose: 100.0 mg/kg/injection, schedule: Q04DX003 (ip), vehicle: Klucel (hydroxypropylcellulose) (HPC)
[3] = dose: 200.0 mg/kg/injection, schedule: Q01DX001 (ip), vehicle: acetone
[4] = dose: 200.0 mg/kg/injection, schedule: Q04DX003 (ip), vehicle: Klucel (hydroxypropylcellulose) (HPC)
[5] = dose: 400.0 mg/kg/injection, schedule: Q04DX003 (ip), vehicle: Klucel (hydroxypropylcellulose) (HPC)
[6] = dose: 50.0 mg/kg/injection, schedule: Q04DX003 (ip), vehicle: saline
[7] = dose: 100.0 mg/kg/injection, schedule: Q04DX003 (ip), vehicle: saline
[8] = dose: 100.0 mg/kg/injection, schedule: Q01DX Z (ip), vehicle: methylcellulose (MC)
[9] = dose: 200.0 mg/kg/injection, schedule: Q01DX Z (ip), vehicle: methylcellulose (MC)
[10] = dose: 100.0 mg/kg/injection, schedule: Q04DX002 (ip), vehicle: Klucel (hydroxypropylcellulose) (HPC)
[11] = dose: 200.0 mg/kg/injection, schedule: Q04DX002 (ip), vehicle: Klucel (hydroxypropylcellulose) (HPC)
[12] = dose: 50.0 mg/kg/injection, schedule: Q01DX001 (ip), vehicle: saline
[13] = dose: 100.0 mg/kg/injection, schedule: Q01DX001 (ip), vehicle: saline
[14] = dose: 200.0 mg/kg/injection, schedule: Q01DX001 (ip), vehicle: saline
[15] = dose: 400.0 mg/kg/injection, schedule: Q01DX001 (ip), vehicle: saline
[16] = dose: 400.0 mg/kg/injection, schedule: Q04DX002 (ip), vehicle: Klucel (hydroxypropylcellulose) (HPC)

## Nc1cc2c(cc1N)C(=O)c1ccccc1C2=O
[1]
  T/C: 95 % of control
[2]
  T/C: 101 % of control
[3]
  T/C: 98 % of control
[4]
  T/C: 94 % of control
dose: 400.0 mg/kg/injection, schedule: Q01DX001 (ip), vehicle: acetone
  T/C: 102 % of control
[5]
  T/C: 90 % of control

## COc1c(Cl)cc([N+](=O)[O-])c(OC)c1[N+](=O)[O-]
dose: 50.0 mg/kg/injection, schedule: Q01DX009 (ip), vehicle: acetone
  T/C: 90 % of control
[6]
  T/C: 98 % of control
[1]
  T/C: 94 % of control
dose: 100.0 mg/kg/injection, schedule: Q01DX009 (ip), vehicle: acetone
  T/C: 90 % of control
[7]
  T/C: 93 % of control
[3]
  T/C: 98 % of control

## CC1CC(=O)NC(=O)N1Cc1ccccc1 (configuration not stated)
[8]
  T/C: 91 % of control
[9]
  T/C: 92 % of control

## COc1cc(N(CCCl)CCCl)c(OC)cc1C=Nc1cccc(F)c1
dose: 12.5 mg/kg/injection, schedule: Q01DX001 (ip), vehicle: Klucel (hydroxypropylcellulose) (HPC)
  T/C: 96 % of control
dose: 13.0 mg/kg/injection, schedule: Q01DX009 (ip), vehicle: carboxymethylcellulose (CMC)
  T/C: 116 % of control
dose: 20.0 mg/kg/injection, schedule: Q01DX001 (ip), vehicle: Klucel (hydroxypropylcellulose) (HPC)
  T/C: 117 % of control
dose: 20.0 mg/kg/injection, schedule: Q01DX009 (ip), vehicle: carboxymethylcellulose (CMC)
  T/C: 120 % of control
dose: 25.0 mg/kg/injection, schedule: Q01DX001 (ip), vehicle: Klucel (hydroxypropylcellulose) (HPC)
  T/C: 101 % of control
dose: 30.0 mg/kg/injection, schedule: Q01DX009 (ip), vehicle: carboxymethylcellulose (CMC)
  T/C: 118 % of control
dose: 50.0 mg/kg/injection, schedule: Q01DX001 (ip), vehicle: Klucel (hydroxypropylcellulose) (HPC)
  T/C: 98 % of control
dose: 75.0 mg/kg/injection, schedule: Q01DX001 (ip), vehicle: Klucel (hydroxypropylcellulose) (HPC)
  T/C: 101 % of control and 118 % of control
dose: 177.0 mg/kg/injection, schedule: Q01DX001 (ip), vehicle: carboxymethylcellulose (CMC)
  T/C: 122 % of control
dose: 200.0 mg/kg/injection, schedule: Q01DX001 (ip), vehicle: carboxymethylcellulose (CMC)
  T/C: 102 % of control
dose: 400.0 mg/kg/injection, schedule: Q01DX001 (ip), vehicle: carboxymethylcellulose (CMC)
  T/C: 153 % of control
dose: 600.0 mg/kg/injection, schedule: Q01DX001 (ip), vehicle: carboxymethylcellulose (CMC)
  T/C: 124 % of control

## CCCCOP(=O)(OCCCC)C(c1ccccc1)(c1ccccc1)c1ccccc1
[2]
  T/C: 91 % of control
[4]
  T/C: 94 % of control
[5]
  T/C: 96 % of control

## CC(C)(C)C1=CC(=C(Cl)Cl)C=C(C(C)(C)C)C1=O
dose: 100.0 mg/kg/injection, schedule: Q04DX003 (ip), vehicle: other
  T/C: 97 % of control
dose: 200.0 mg/kg/injection, schedule: Q04DX003 (ip), vehicle: other
  T/C: 98 % of control
dose: 400.0 mg/kg/injection, schedule: Q04DX003 (ip), vehicle: other
  T/C: 93 % of control

## CCn1cc(C(=O)O)c(=O)c2cc(OC)c3ccccc3c21
dose: 50.0 mg/kg/injection, schedule: Q04DX002 (ip), vehicle: Klucel (hydroxypropylcellulose) (HPC)
  T/C: 92 % of control
[10]
  T/C: 103 % of control

## CN(C)CCCN1c2cc(Cl)ccc2Sc2ccc(Cl)cc21
[10]
  T/C: 122 % of control
[11]
  T/C: 108 % of control

## CC(O)C1CCC2C3CCC4CC(SC(=O)c5ccccc5)CCC4(C)C3CCC12C (configuration not stated)
dose: 50.0 mg/kg/injection, schedule: Q01DX001 (sc), vehicle: steriod suspending solution
  T/C: 103 % of control
dose: 100.0 mg/kg/injection, schedule: Q01DX001 (sc), vehicle: steriod suspending solution
  T/C: 97 % of control
dose: 200.0 mg/kg/injection, schedule: Q01DX001 (sc), vehicle: steriod suspending solution
  T/C: 97 % of control
dose: 400.0 mg/kg/injection, schedule: Q01DX001 (sc), vehicle: steriod suspending solution
  T/C: 94 % of control

## COC(=O)c1cc(C)cc([N+](=O)[O-])c1C
[12]
  T/C: 91 % of control
[13]
  T/C: 111 % of control
[14]
  T/C: 100 % of control
[15]
  T/C: 102 % of control

## CCC(C)C(=NC)Nc1ccc(Cl)c(Cl)c1 (configuration not stated)
dose: 111.0 mg/kg/injection, schedule: Q01DX Z (ip), vehicle: methylcellulose (MC)
  T/C: 91 % of control

## CC(=O)OC1=C(c2c(C)cc(C)c(Br)c2C)C(=O)C(OC(C)=O)=C(c2c(C)cc(C)c(Br)c2C)C1=O
[2]
  T/C: 104 % of control
[4]
  T/C: 100 % of control
[5]
  T/C: 98 % of control

## COCC(=O)C(C(C)=O)C(c1ccc2c(c1)OCO2)C(C(C)=O)C(=O)COC (configuration not stated)
dose: 100.0 mg/kg/injection, schedule: Q01DX009 (ip), vehicle: saline with Tween-80
  T/C: 87 % of control

## CC(=O)NNc1ccc([N+](=O)[O-])cn1
[13]
  T/C: 100 % of control
[14]
  T/C: 100 % of control
[15]
  T/C: 100 % of control

## N#C/C(=C\c1ccc(Cl)cc1)c1cccc2ccccc12
dose: 100.0 mg/kg/injection, schedule: Q01DX009 (ip), vehicle: Klucel (hydroxypropylcellulose) (HPC)
  T/C: 92 % of control
dose: 200.0 mg/kg/injection, schedule: Q01DX009 (ip), vehicle: Klucel (hydroxypropylcellulose) (HPC)
  T/C: 92 % of control
dose: 400.0 mg/kg/injection, schedule: Q01DX009 (ip), vehicle: Klucel (hydroxypropylcellulose) (HPC)
  T/C: 90 % of control

## O=C(CCCC(=O)NNC(=S)Nc1ccccc1Cl)NNC(=S)Nc1ccccc1Cl
[12]
  T/C: 96 % of control
[13]
  T/C: 96 % of control
[14]
  T/C: 93 % of control
[15]
  T/C: 93 % of control

## CCOC(=O)C(OCc1ccccc1)(C(=O)N1CCCCC1=O)C(C)C (configuration not stated)
dose: 25.0 mg/kg/injection, schedule: Q04DX003 (ip), vehicle: Klucel (hydroxypropylcellulose) (HPC)
  T/C: 119 % of control
dose: 50.0 mg/kg/injection, schedule: Q04DX003 (ip), vehicle: Klucel (hydroxypropylcellulose) (HPC)
  T/C: 97 % of control
[2]
  T/C: 113 % of control
[4]
  T/C: 88 % of control

## CCCCNc1cc(N)[nH]c(=O)n1
dose: 75.0 mg/kg/injection, schedule: Q01DX001 (ip), vehicle: saline with Tween-80
  T/C: 93 % of control
dose: 150.0 mg/kg/injection, schedule: Q01DX001 (ip), vehicle: saline with Tween-80
  T/C: 90 % of control
dose: 300.0 mg/kg/injection, schedule: Q01DX001 (ip), vehicle: saline with Tween-80
  T/C: 90 % of control

## C1CCN(CN2CCCC2)C1
dose: 25.0 mg/kg/injection, schedule: Q01DX001 (ip), vehicle: saline
  T/C: 96 % of control
dose: 25.0 mg/kg/injection, schedule: Q01DX009 (ip), vehicle: saline
  T/C: 92 % of control
dose: 25.0 mg/kg/injection, schedule: Q04DX003 (ip), vehicle: saline
  T/C: 98 % of control
[12]
  T/C: 94 % of control
dose: 50.0 mg/kg/injection, schedule: Q01DX009 (ip), vehicle: saline
  T/C: 92 % of control
[6]
  T/C: 105 % of control
[13]
  T/C: 97 % of control and 88 % of control
[7]
  T/C: 88 % of control

## CCC(CC)N(C)C(C)(C)CO
dose: 100.0 mg/kg/injection, schedule: Q04DX003 (ip), vehicle: saline sonified
  T/C: 90 % of control
dose: 200.0 mg/kg/injection, schedule: Q04DX003 (ip), vehicle: saline sonified
  T/C: 87 % of control

## COc1ccc(F)cc1CC(N)=O
[10]
  T/C: 101 % of control
[11]
  T/C: 97 % of control
[16]
  T/C: 104 % of control

## Cc1cccc(Nc2nc(N)nc(N)c2N=O)c1
[8]
  T/C: 102 % of control
[10]
  T/C: 101 % of control
[9]
  T/C: 97 % of control
[11]
  T/C: 94 % of control
[16]
  T/C: 101 % of control

## O=C1/C(=C\c2ccccc2Cl)N2CCC1CC2
dose: 100.0 mg/kg/injection, schedule: Q01DX001 (ip), vehicle: saline with Tween-80
  T/C: 94 % of control
dose: 200.0 mg/kg/injection, schedule: Q01DX001 (ip), vehicle: saline with Tween-80
  T/C: 109 % of control
dose: 400.0 mg/kg/injection, schedule: Q01DX001 (ip), vehicle: saline with Tween-80
  T/C: 93 % of control
